Source: PubChem BioAssay AID2060510 (Molecular Pharmacology Branch, DTP, NCI, 2025)

System: 439559-082-T-J2-PDC spheroids viability
Assay: Anticancer human tumor 439559-082-T-J2-PDC patient-derived colon adenocarcinoma cell line growth inhibition [GQUAD]
Details: for IC50: curve of first compound; for viability, T/C: stronger effect = lower value
Source text: DNA G-quadruplex Stabilizer Agents in Combinations in Complex Spheroids
A high-throughput screen of multi-cell type tumor spheroids was designed to identify active combinations of DNA G-quadruplex stabilizer agents and targeted small molecules. Complex spheroids include a stromal component modeled by human endothelial cells (HUVEC) and fibroblasts modeled by human mesenchymal stem cells (MSCs). The concentration ranges selected for each drug and investigational agent were based upon clinically achievable concentrations if the clinical Cmax of the agent was known.
Compounds. The drugs and investigational agents: pidnarulex (CX-5461; NSC782164), APTO-253 (NSC789042), BRACO-19 (NSC847499), peposertib (NSC802822), ceralasertib (NSC780249), elimusertib (NSC800525), camonsertib (NSC841442), AZD-1390 (NSC803789), olaparib (NSC753686), talazoparib (NSC767125), ART-558 (NSC835418), sotorasib (NSC818433), MRTX-1133 (NSC836407), SN-38 (NSC673596), topotecan (NSC609699), etoposide (NSC141540), doxorubicin (NSC123127), gemcitabine (NSC613327), 5-fluorouracil (NSC19893), paclitaxel (NSC125973), vemurafenib (NSC761431), panobinostat (NSC761190), R-306465 (JNJ-16241199; NSC773264), adavosertib (NSC754352), TP-3654 (NSC805149), carboplatin (NSC241240), KSQ-4279 (NSC840948), and staurosporine (NSC755774) were obtained from the National Cancer Institute (NCI) Developmental Therapeutics Program Chemical Repository (34). The FDA-approved anticancer drug set is available from the NCI Developmental Therapeutics Program. […] The stock solutions were prepared in dimethyl sulfoxide (DMSO, Sigma-Aldrich, St. Louis, MO, cat. D2650) at 800-fold the tested concentration and stored at -70 degrees C prior to their use. All drugs and investigational agents were tested over a range starting from a high concentration at or near the clinical Cmax and decreasing in half-log increments. If the clinical Cmax for an agent had not been determined, the highest concentration tested was 10 microM.
2.3 Cell Culture. All cells were maintained in an incubator at 37 degrees C and 5% CO2 with 95% humidity. The PDC lines were cultured according to standard operating procedures established by the NCI PDMR. All PDCs were thawed and cultured in Matrigel-coated flasks prepared with a working solution of 1X Ham's F-12 nutrient mix, without supplementation (Invitrogen, cat. 11765054), 100 U/mL penicillin-streptomycin (Invitrogen, cat. 15140122), and 2.5% Matrigel (Corning Inc., cat. 354248) for the first three passages. The 857933-349-R-J2-PDC line was cultured in 6C/Colon 1B media, which includes advanced DMEM/F-12 (Thermo Fisher Scientific, cat. 12634028), 10 mM HEPES (Thermo Fisher Scientific, cat. 15630080), 1X GlutaMAX supplement (Thermo Fisher Scientific, cat. 35050061), 0.1 mg/mL primocin (InvivoGen, cat. ant-pm-2), 10% defined fetal bovine serum, heat inactivated (HyClone Laboratories Inc., cat. SH30070.03HI), 50% L-WRN conditioned media (ATCC, cat. CRL-3276), 1.25 mM N-Acetyl-L-cysteine (Sigma-Aldrich, cat. A9165), 10 mM nicotinamide (Sigma-Aldrich, cat. N0636), 1X B-27 supplement (Thermo Fisher Scientific, cat. 17504044), 1X N-2 supplement (Thermo Fisher Scientific, cat. 17502048), 10 microM Y-27632 dihydrochloride (Tocris Bioscience, cat. 1254), and 50 ng/mL human EGF recombinant protein (Thermo Fisher Scientific, cat. PHG0311). The 485176-168-R4-J1-PDC line was cultured in Panc media, which includes all 6C/Colon 1B media components plus 100 ng/mL human FGF-10 (Thermo Fisher Scientific, cat. 100-26), 500 nM SB-431542 (Selleckchem, cat. S1067), and gastrin (Tocris, cat. 3006).
[…]

[1] = second compound 0.0316 µM, first compound 0.0316 µM
[2] = second compound 0.0316 µM, first compound 0.316 µM
[3] = second compound 0.1 µM, first compound 0.0316 µM
[4] = second compound 0.1 µM, first compound 0.316 µM
[5] = second compound 0.316 µM, first compound 0.0316 µM
[6] = second compound 0.316 µM, first compound 0.316 µM
[7] = second compound 1 µM, first compound 0.0316 µM
[8] = second compound 1 µM, first compound 0.316 µM
[9] = second compound 3.16 µM, first compound 0.0316 µM
[10] = second compound 3.16 µM, first compound 0.316 µM
[11] = second compound 10 µM, first compound 0.0316 µM
[12] = second compound 10 µM, first compound 0.316 µM
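Note: spheroids exposed to the agents for 7 days before readout.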
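Throughout, for viability, T/C: percent of luminescence signal in DMSO vehicle wells taken as 100% viability.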

Cc1cccc(N(C)C(=O)C2C(O)CCN2c2nc(C)cc(C(F)(F)F)c2C#N)c1 (centres undefined) + CN(C)c1ccc(Nc2c3ccc(NC(=O)CCN4CCCC4)cc3nc3cc(NC(=O)CCN4CCCC4)ccc23)cc1
IC50 (second compound 0.0316 µM): > 10 µM
IC50 (second compound 0.1 µM): > 10 µM
IC50 (second compound 0.316 µM): > 10 µM
IC50 (second compound 1 µM): > 10 µM
IC50 (second compound 3.16 µM): > 10 µM
IC50 (second compound 10 µM): > 10 µM
viability, T/C [1]: 102%
viability, T/C (second compound 0.0316 µM, first compound 0.1 µM): 87.8%
viability, T/C [2]: 97.3%
viability, T/C (second compound 0.0316 µM, first compound 1 µM): 89.8%
viability, T/C (second compound 0.0316 µM, first compound 3.16 µM): 94.5%
viability, T/C (second compound 0.0316 µM, first compound 10 µM): 99.5%
viability, T/C [3]: 109%
viability, T/C (second compound 0.1 µM, first compound 0.1 µM): 100%
viability, T/C [4]: 94.6%
viability, T/C (second compound 0.1 µM, first compound 1 µM): 92.1%
viability, T/C (second compound 0.1 µM, first compound 3.16 µM): 95.5%
viability, T/C (second compound 0.1 µM, first compound 10 µM): 109%
viability, T/C [5]: 84.5%
viability, T/C (second compound 0.316 µM, first compound 0.1 µM): 98.7%
viability, T/C [6]: 101%
viability, T/C (second compound 0.316 µM, first compound 1 µM): 96.7%
viability, T/C (second compound 0.316 µM, first compound 3.16 µM): 95.2%
viability, T/C (second compound 0.316 µM, first compound 10 µM): 94.3%
viability, T/C [7]: 96.4%
viability, T/C (second compound 1 µM, first compound 0.1 µM): 102%
viability, T/C [8]: 97.5%
viability, T/C (second compound 1 µM, first compound 1 µM): 99.3%
viability, T/C (second compound 1 µM, first compound 3.16 µM): 96.6%
viability, T/C (second compound 1 µM, first compound 10 µM): 93.9%
viability, T/C [9]: 112%
viability, T/C (second compound 3.16 µM, first compound 0.1 µM): 93.5%
viability, T/C [10]: 101%
viability, T/C (second compound 3.16 µM, first compound 1 µM): 89.7%
viability, T/C (second compound 3.16 µM, first compound 3.16 µM): 107%
viability, T/C (second compound 3.16 µM, first compound 10 µM): 92.1%
viability, T/C [11]: 93.6%
viability, T/C (second compound 10 µM, first compound 0.1 µM): 87.1%
viability, T/C [12]: 100%
viability, T/C (second compound 10 µM, first compound 1 µM): 102%
viability, T/C (second compound 10 µM, first compound 3.16 µM): 94%
viability, T/C (second compound 10 µM, first compound 10 µM): 91.8%

Cn1ncnc1[C@H]1c2n[nH]c(=O)c3cc(F)cc(c23)N[C@@H]1c1ccc(F)cc1 + CN(C)c1ccc(Nc2c3ccc(NC(=O)CCN4CCCC4)cc3nc3cc(NC(=O)CCN4CCCC4)ccc23)cc1
IC50 (second compound 0.0316 µM): > 0.316 µM
IC50 (second compound 0.1 µM): > 0.316 µM
IC50 (second compound 0.316 µM): > 0.316 µM
IC50 (second compound 1 µM): > 0.316 µM
IC50 (second compound 3.16 µM): > 0.316 µM
IC50 (second compound 10 µM): > 0.316 µM
viability, T/C (second compound 0.0316 µM, first compound 0.000999 µM): 94.6%
viability, T/C (second compound 0.0316 µM, first compound 0.00316 µM): 97%
viability, T/C (second compound 0.0316 µM, first compound 0.00999 µM): 104%
viability, T/C [1]: 96.3%
viability, T/C (second compound 0.0316 µM, first compound 0.0999 µM): 95.9%
viability, T/C [2]: 94.4%
viability, T/C (second compound 0.1 µM, first compound 0.000999 µM): 99.6%
viability, T/C (second compound 0.1 µM, first compound 0.00316 µM): 98.6%
viability, T/C (second compound 0.1 µM, first compound 0.00999 µM): 90.7%
viability, T/C [3]: 108%
viability, T/C (second compound 0.1 µM, first compound 0.0999 µM): 94.4%
viability, T/C [4]: 85.3%
viability, T/C (second compound 0.316 µM, first compound 0.000999 µM): 99.6%
viability, T/C (second compound 0.316 µM, first compound 0.00316 µM): 106%
viability, T/C (second compound 0.316 µM, first compound 0.00999 µM): 97%
viability, T/C [5]: 94.4%
viability, T/C (second compound 0.316 µM, first compound 0.0999 µM): 93.8%
viability, T/C [6]: 82.5%
viability, T/C (second compound 1 µM, first compound 0.000999 µM): 96.8%
viability, T/C (second compound 1 µM, first compound 0.00316 µM): 91.7%
viability, T/C (second compound 1 µM, first compound 0.00999 µM): 96%
viability, T/C [7]: 111%
viability, T/C (second compound 1 µM, first compound 0.0999 µM): 96.8%
viability, T/C [8]: 92.5%
viability, T/C (second compound 3.16 µM, first compound 0.000999 µM): 101%
viability, T/C (second compound 3.16 µM, first compound 0.00316 µM): 102%
viability, T/C (second compound 3.16 µM, first compound 0.00999 µM): 89.6%
viability, T/C [9]: 99.2%
viability, T/C (second compound 3.16 µM, first compound 0.0999 µM): 98.1%
viability, T/C [10]: 85.5%
viability, T/C (second compound 10 µM, first compound 0.000999 µM): 104%
viability, T/C (second compound 10 µM, first compound 0.00316 µM): 77.2%
viability, T/C (second compound 10 µM, first compound 0.00999 µM): 91.5%
viability, T/C [11]: 85.8%
viability, T/C (second compound 10 µM, first compound 0.0999 µM): 99.6%
viability, T/C [12]: 85%
